Assay results: patent US20240390417A1, “MNO NANOMATERIAL BASED INHIBITORS OF INFLAMMATION AND SARS-COV-2 VIRAL REPLICATION” (Duke University, priority 2015, published 2024)

Experiments:
calf thymus DNA = assay: PicoGreen DNA-binding assay; conditions: TE buffer, unbound PicoGreen-labeled DNA
Procedure: The fluorescence intensity of the unbound Picogreen®-DNA complex at 520 nm was measured with a multiwell plate reader via excitation at 490 nm.
Inflammatory circulating cfDNA released by PTT-damaged host cells might cause a severe inflammatory response, which may be mitigated by the scavenging of cfDNA. Therefore, to interrogate the cfDNA scavenging ability of the various nanoparticles, the inventors investigated the calf thymus DNA binding affinity of the nanoparticles in Tris-EDTA (TE) buffer with and without 10% FBS by measuring unbound PicoGreen®-labeled DNA (FIGS. 5C and 5D).

4T1 tumor-bearing mice = assay: PTT-induced inflammation, 4T1 metastasis tumor model; conditions: intravenous three times per week
Procedure: The fluorescent signal intensity was recorded on the IVIS® instrument at different time intervals.
The ability of the MnO and MnO@Cucumin nanoparticles to mitigate the PTT-induced inflammatory response was examined on 4T1 tumor-bearing mice. […] The 4T1 tumor-bearing mice received photothermal therapy first, and then were further treated with different formulations by intravenous injection three times per week.

| SMILES | DNA binding affinity (calf thymus DNA) | body weight (4T1 tumor-bearing mice; after laser (PTT)) | tumor recurrence and metastasis (4T1 tumor-bearing mice; after laser (PTT)) | effect on body weight of the mice (4T1 tumor-bearing mice; without laser) | effect on size of the tumors (4T1 tumor-bearing mice; without laser) |
| --- | --- | --- | --- | --- | --- |
| COc1cc(/C=C/C(=O)CC(=O)/C=C/c2ccc(O)c(OC)c2)ccc1O [curcumin] | negligible DNA binding ability | increased body weight | inhibited tumor recurrence and metastasis | did not show obvious effects | did not show obvious effects |
| O=C(OC[C@H]1O[C@@H](OC(=O)c2cc(O)c(O)c(OC(=O)c3cc(O)c(O)c(O)c3)c2)[C@H](OC(=O)c2cc(O)c(O)c(OC(=O)c3cc(O)c(O)c(O)c3)c2)[C@@H](OC(=O)c2cc(O)c(O)c(OC(=O)c3cc(O)c(O)c(O)c3)c2)[C@@H]1OC(=O)c1cc(O)c(O)c(OC(=O)c2cc(O)c(O)c(O)c2)c1)c1cc(O)c(O)c(OC(=O)c2cc(O)c(O)c(O)c2)c1 [tannic acid] | can bind to DNA | – | – | – | – |
